PMC4102417 (PLoS Neglected Tropical Diseases, 2014)
“Also recorded” adds a separate entry of the source. Like-named read-outs stand apart in the source and are kept apart here.

Assays:
[1] = tested on: T. cruzi (Tulahuen strain); assay: Mouse model of acute T. cruzi infection; type: in vivo, BALB/c mice; details: oral gavage days 7-11 post-infection, doses of Table 5
Description: Age 8–10 week-old BALB/c female mice were obtained from Harlan Laboratories. Mice were infected with 1×10^4 tissue culture derived wild-type trypomastigotes of the Tulahuen strain by subcutaneous injection on day 0. They were administered test drugs in groups of five by oral gavage on days 7–11. All drugs were dissolved in vehicle composed of sodium carboxymethylcellulose 0.5% w/v, benzyl alcohol 0.5% v/v, Tween 80 0.4% v/v diluted in 0.9% aqueous NaCl solution. Parasitemia was quantified by examining tail blood specimens at times points indicated in Figures 2, 3, S4, and S5 as previously described.
Selected drugs identified in the above screens were tested alone or in combination in the mouse model of T. cruzi infection. In the first experiment, we focused on posaconazole and benznidazole because of their advanced clinical status for treating Chagas disease. Since benznidazole and posaconazole are known to have curative activity as monotherapies, we used sub-curative doses so that additive or synergistic interactions could be detected when used in combinations. The other drugs were administered at doses described in the literature for treating mice. Briefly, mice were gavaged once or twice daily with a given drug or combination on days 7–11 post-infection. We conducted a second experiment (Figure 3) examining the same drugs with the purpose of confirming and expanding upon the initial results shown in Figure 2.

[2] = tested on: 3T3 fibroblast cells; assay: cells; type: cell-based, murine; details: for activity at 10 µM: Mus musculus, NIH3T3, 72 h, Table S2, read-out: Mammalian (3T3) cell % growth at 10 uM
[3] = in vitro; type: cell-based, murine; details: mouse
[4] = tested on: T. cruzi (Tulahuen strain); assay: microbe, parasite or virus in culture; type: cell-based, Trypanosoma cruzi; details: for activity at 10 µM: Table S2, read-out: T. cruzi % growth @ 10 uM (Amastigotes); for EC50: read-out: T. cruzi EC50
Method in brief: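 Tulahuen parasites expressing beta-galactosidase were added (1×10^4 trypomastigotes/well) to 3T3 fibroblasts plated 24 h earlier, 4 h before compound (10 µM final).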

[5] = tested on: T. cruzi amastigotes; assay: Combination screen of drug pairs at EC25; type: cell-based, Trypanosoma cruzi; details: at EC25, alone or in combination
Description: […] compounds were selected for testing in combinations. All two-way combinations were tested (300 experiments). First, EC25 concentrations were determined for the individual compounds against T. cruzi amastigotes as described above. To test for synergy, compounds were evaluated in quadruplicate individually at the experimentally determined EC25, and in combination with other compounds at each respective EC25 concentration (further explained in the Discussion section). For inclusion in downstream analysis, each individual compound in a pair was required to inhibit 25±10% of growth in positive control (untreated) wells. If not in this range, the experiment was repeated. The measured growth of T. cruzi amastigotes was compared to the predicted effect of the combination as follows. Assuming a simple additive effect, the predicted inhibition of the drug pairs was expected to be the product of the percent-growths of each compound when tested alone. For example, if compound A gave 75% growth of the control and compound B gave 80% of the control growth, then the combination would be predicted to be 60% (i.e., 75%×80% = 60%).
Cells in green indicate a greater effect than predicted (“synergism”) and the squares in red indicate a lesser effect than predicated (“antagonism”).

[6] = tested on: T. brucei; details: cited from earlier work
[7] = Trypanosoma cruzi, TULAHUEN, Fibroblast, 120 h
[8] = Trypanosoma cruzi, TULAHUEN, Fibroblast, 120 h, intracellular amastigotes, 5 days, separate assays separated by semicolons
[9] = 3T3 fibroblasts, 72 hours, separate assays separated by semicolons, read-out: Mammalian cell CC50
[10] = average mammalian cell CC50 divided by average T. cruzi EC50
[11] = intracellular amastigotes, 5 days, separate assays separated by semicolons

Structure (SMILES)	parasitemia [1]	activity at 10 µM [2] [%]	CC50 ([3]; Mammalian cell CC50 (nM)) [nM]	Selectivity index [4]	activity at 10 µM [4, 7] [%]	EC50 [4, 8] [µM]	CC50 [3, 9] [nM]	Selectivity index [4, 10]	EC50 [4, 11] [µM]	% of normal growth [5] [%]	EC50 [6] [µM]	EC50 ([4]; Trypanosoma cruzi, TULAHUEN, Fibroblast) [µM]	CC50 [2, 9] [µM]	activity against T. brucei ([6]; no reference given) [µM]	EC50 ([4]; Trypanosoma cruzi, TULAHUEN, Fibroblast, Table S2, amastigotes) [µM]
CCOC(=O)C1=C(COCCN)NC(C)=C(C(=O)OC)C1c1ccccc1Cl.O=S(=O)(O)c1ccccc1 (stereo not drawn) [Amlodipine, 3-ethyl 5-methyl 2-[(2-aminoethoxy)methyl]-4-(2-chlorophenyl)-6-methyl-1,4-dihydropyridine-3,5-dicarboxylate; benzenesulfonic acid]	no differences compared to the vehicle treated mice; also recorded: slight effects	100	13000	11.8	13.3	1.1	–	–	–	–	–	–	–	–	–
O=C(Cn1ccnc1[N+](=O)[O-])NCc1ccccc1 [Benznidazole]	some attenuation of parasitemia	–	–	–	–	0.65	> 25000	>40	0.6	–	–	–	–	–	–
CN1CCCC1CCOC(C)(c1ccccc1)c1ccc(Cl)cc1 (stereo not drawn) [Clemastine, 2-{2-[1-(4-chlorophenyl)-1-phenylethoxy]ethyl}-1-methylpyrrolidine]	no differences compared to the vehicle treated mice	93.2	–	–	–	–	–	–	–	74	–	–	–	–	–
Clc1ccc(C(OCCN2CCCCC2)c2ccccc2)cc1 (stereo not drawn) [Cloperastine, 1-{2-[(4-chlorophenyl)(phenyl)methoxy]ethyl}piperidine]	–	100	–	–	1.2	5.8	21400	3.8	5.6	79	–	–	–	–	–
CCc1nc(N)nc(N)c1-c1ccc(Cl)cc1 [Pyrimethamine, 5-(4-chlorophenyl)-6-ethylpyrimidine-2,4-diamine]	–	97.6	–	–	24.2	3.82	28500	7.5	–	–	17	3.8	–	–	–
Nc1nc(N)c2nc(-c3ccccc3)c(N)nc2n1 [Triamterene, 6-phenylpteridine-2,4,7-triamine]	–	72.7	–	11.4	17.3	1.66	23000	–	–	–	–	–	14.8	48	18.9
